Experimental data: PubChem BioAssay AID1259407 (Chemical Carcinogenesis Research Information System (CCRIS), 2018)
Calls of active or inactive are those of the source. How the calls were made is not given here.

Test system: CCRIS mutagenicity, Ames/micronucleus/aberration tests
Assay: CCRIS mutagenicity studies
[1] = Test System: AMES SALMONELLA TYPHIMURIUM, Strain/Indicator: TA97, Metabolic Activation: NONE, Method: PREINCUBATION
[2] = Test System: AMES SALMONELLA TYPHIMURIUM, Strain/Indicator: TA98, Metabolic Activation: NONE, Method: STANDARD PLATE
[3] = Test System: AMES SALMONELLA TYPHIMURIUM, Strain/Indicator: TA98, Metabolic Activation: RAT, LIVER, S-9, AROCLOR 1254, Method: STANDARD PLATE
[4] = Test System: AMES SALMONELLA TYPHIMURIUM, Strain/Indicator: TA100, Metabolic Activation: NONE, Method: STANDARD PLATE
[5] = Test System: AMES SALMONELLA TYPHIMURIUM, Strain/Indicator: TA100, Metabolic Activation: RAT, LIVER, S-9, AROCLOR 1254, Method: STANDARD PLATE
[6] = Test System: AMES SALMONELLA TYPHIMURIUM, Strain/Indicator: TA1535, Metabolic Activation: NONE, Method: STANDARD PLATE
[7] = Test System: AMES SALMONELLA TYPHIMURIUM, Strain/Indicator: TA1535, Metabolic Activation: RAT, LIVER, S-9, AROCLOR 1254, Method: STANDARD PLATE
[8] = Test System: AMES SALMONELLA TYPHIMURIUM, Strain/Indicator: TA1537, Metabolic Activation: NONE, Method: STANDARD PLATE
[9] = Test System: AMES SALMONELLA TYPHIMURIUM, Strain/Indicator: TA1537, Metabolic Activation: RAT, LIVER, S-9, AROCLOR 1254, Method: STANDARD PLATE
[10] = Test System: AMES SALMONELLA TYPHIMURIUM, Strain/Indicator: TA1538, Metabolic Activation: NONE, Method: STANDARD PLATE
[11] = Test System: AMES SALMONELLA TYPHIMURIUM, Strain/Indicator: TA1538, Metabolic Activation: RAT, LIVER, S-9, AROCLOR 1254, Method: STANDARD PLATE

O=S(O)S(=O)(=O)O
mutagenic call (End Point: In vitro chromosomal aberration, Test System: Human lymphocytes, Metabolic Activation: None): active; positive (structural changes)
mutagenic call (End Point: In vitro micronucleus, Test System: Human lymphocytes, Metabolic Activation: None): active; positive
mutagenic call (End Point: In vivo micronucleus, Test System: Bone marrow cells, Species: Rat, Strain/Sex: Rattus norvegicus var. albino / Male, female, Route: Intraperitoneal): active; positive (structural changes)
mutagenic call [1]: inactive; negative
mutagenic call (Test System: AMES SALMONELLA TYPHIMURIUM, Strain/Indicator: TA97, Metabolic Activation: RAT, LIVER, S-9, AROCLOR 1254, Method: PREINCUBATION): inactive; negative
mutagenic call [2]: inactive; negative
mutagenic call [3]: inactive; negative
mutagenic call [4]: inactive; negative
mutagenic call [5]: inactive; negative
mutagenic call (Test System: AMES SALMONELLA TYPHIMURIUM, Strain/Indicator: TA102, Metabolic Activation: NONE, Method: PREINCUBATION): inactive; negative
mutagenic call (Test System: AMES SALMONELLA TYPHIMURIUM, Strain/Indicator: TA102, Metabolic Activation: RAT, LIVER, S-9, AROCLOR 1254, Method: PREINCUBATION): inactive; negative
mutagenic call [6]: inactive; negative
mutagenic call [7]: inactive; negative
mutagenic call [8]: inactive; negative
mutagenic call [9]: inactive; negative
mutagenic call [10]: inactive; negative
mutagenic call [11]: inactive; negative
mutagenic call (Test System: E. COLI, Strain/Indicator: WP2, Metabolic Activation: NONE, Method: STANDARD PLATE): inactive; negative
mutagenic call (Test System: E. COLI, Strain/Indicator: WP2, Metabolic Activation: RAT, LIVER, S-9, AROCLOR 1254, Method: STANDARD PLATE): inactive; negative

O=C1NC(=O)C(O)(O)C(=O)N1
mutagenic call (End Point: IN VITRO CHROMOSOMAL ABERRATIONS, Test System: CHO CELLS, Metabolic Activation: NONE): inactive; negative
mutagenic call (End Point: IN VITRO CHROMOSOMAL ABERRATIONS, Test System: CHO CELLS, Metabolic Activation: RAT, LIVER, S-9, AROCLOR 1254): inactive; negative
mutagenic call (Test System: AMES SALMONELLA TYPHIMURIUM, Strain/Indicator: TA97, Metabolic Activation: HAMSTER, LIVER, S-9, AROCLOR 1254 (10 OR 30%), Method: PREINCUBATION): inactive; negative
mutagenic call [1]: inactive; negative
mutagenic call (Test System: AMES SALMONELLA TYPHIMURIUM, Strain/Indicator: TA97, Metabolic Activation: RAT, LIVER, S-9, AROCLOR 1254 (10 OR 30%), Method: PREINCUBATION): inactive; negative
mutagenic call (Test System: AMES SALMONELLA TYPHIMURIUM, Strain/Indicator: TA98, Metabolic Activation: HAMSTER, LIVER, S-9, AROCLOR 1254 (10 OR 30%), Method: PREINCUBATION): inactive; negative
mutagenic call (Test System: AMES SALMONELLA TYPHIMURIUM, Strain/Indicator: TA98, Metabolic Activation: NONE, Method: PREINCUBATION): inactive; negative
mutagenic call (Test System: AMES SALMONELLA TYPHIMURIUM, Strain/Indicator: TA98, Metabolic Activation: RAT, LIVER, S-9, AROCLOR 1254 (10 OR 30%), Method: PREINCUBATION): inactive; negative
mutagenic call (Test System: AMES SALMONELLA TYPHIMURIUM, Strain/Indicator: TA100, Metabolic Activation: HAMSTER, LIVER, S-9, AROCLOR 1254 (10 OR 30%), Method: PREINCUBATION): inactive; negative
mutagenic call (Test System: AMES SALMONELLA TYPHIMURIUM, Strain/Indicator: TA100, Metabolic Activation: NONE, Method: PREINCUBATION): inactive; negative
mutagenic call (Test System: AMES SALMONELLA TYPHIMURIUM, Strain/Indicator: TA100, Metabolic Activation: RAT, LIVER, S-9, AROCLOR 1254 (10 OR 30%), Method: PREINCUBATION): inactive; negative
mutagenic call (Test System: AMES SALMONELLA TYPHIMURIUM, Strain/Indicator: TA1535, Metabolic Activation: HAMSTER, LIVER, S-9, AROCLOR 1254 (10%), Method: PREINCUBATION): inactive; negative
mutagenic call (Test System: AMES SALMONELLA TYPHIMURIUM, Strain/Indicator: TA1535, Metabolic Activation: HAMSTER, LIVER, S-9, AROCLOR 1254 (30%), Method: PREINCUBATION): inactive; negative
mutagenic call (Test System: AMES SALMONELLA TYPHIMURIUM, Strain/Indicator: TA1535, Metabolic Activation: NONE, Method: PREINCUBATION): inactive; negative
mutagenic call (Test System: AMES SALMONELLA TYPHIMURIUM, Strain/Indicator: TA1535, Metabolic Activation: RAT, LIVER, S-9, AROCLOR 1254 (10 OR 30%), Method: PREINCUBATION): inactive; negative

Cc1ccc2cc3c4c(ccc3c3c2c1C[C@H]3O)[C@@H](O)[C@H](O)C=C4
mutagenic call (Test System: CHINESE HAMSTER V-79, Strain/Indicator: V-79/8-AZAGUANINE, Metabolic Activation: RAT, LIVER, S-9, AROCLOR, Method: STANDARD PLATE): active; positive

O=[N+]([O-])c1cccc(S(=O)(=O)OC[C@H]2CO2)c1
mutagenic call [4]: active; positive

Nc1nc2ccc([N+](=O)[O-])cc2s1
mutagenic call (Test System: AMES SALMONELLA TYPHIMURIUM, Strain/Indicator: TA98, Metabolic Activation: HAMSTER, LIVER, S-9, AROCLOR 1254, Method: STANDARD PLATE): active; positive
mutagenic call [2]: active; positive
mutagenic call [3]: active; positive
mutagenic call (Test System: AMES SALMONELLA TYPHIMURIUM, Strain/Indicator: TA100, Metabolic Activation: HAMSTER, LIVER, S-9, AROCLOR 1254, Method: STANDARD PLATE): active; positive
mutagenic call [4]: inactive; negative
mutagenic call [5]: active; positive
mutagenic call (Test System: AMES SALMONELLA TYPHIMURIUM, Strain/Indicator: TA1535, Metabolic Activation: HAMSTER, LIVER, S-9, AROCLOR 1254, Method: STANDARD PLATE): active; positive
mutagenic call [6]: inactive; negative
mutagenic call [7]: inactive; negative
mutagenic call (Test System: AMES SALMONELLA TYPHIMURIUM, Strain/Indicator: TA1537, Metabolic Activation: HAMSTER, LIVER, S-9, AROCLOR 1254, Method: STANDARD PLATE): active; positive
mutagenic call [8]: inactive; negative
mutagenic call [9]: inactive; negative
mutagenic call (Test System: AMES SALMONELLA TYPHIMURIUM, Strain/Indicator: TA1538, Metabolic Activation: HAMSTER, LIVER, S-9, AROCLOR 1254, Method: STANDARD PLATE): active; positive
mutagenic call [10]: active; positive
mutagenic call [11]: active; positive
mutagenic call (Test System: MOUSE LYMPHOMA, Strain/Indicator: L5178Y (TK+/TK-), Metabolic Activation: NONE, Method: SUSPENSION/PLATE): inactive; negative. reevaluation of results: negative
mutagenic call (Test System: MOUSE LYMPHOMA, Strain/Indicator: L5178Y (TK+/TK-), Metabolic Activation: RAT, LIVER, S-9, AROCLOR 1254, Method: SUSPENSION/PLATE): inactive; negative. reevaluation of results: negative

O=C1CCc2c1cc(C(F)(F)F)c1c3c(ccc21)[C@H](O)[C@@H](O)C=C3
mutagenic call (Test System: AMES SALMONELLA TYPHIMURIUM, Strain/Indicator: TA100, Metabolic Activation: RAT, LIVER, S-9, AROCLOR 1254): active; positive

Fc1cnc2ccc3cccnc3c2c1
mutagenic call (Test System: AMES SALMONELLA TYPHIMURIUM, Strain/Indicator: TA100, Metabolic Activation: RAT, LIVER, S-9, PHENOBARBITAL AND 5,6-BENZOFLAVONE, Method: PREINCUBATION): active; positive
